In patent US20220151982A1, “CANNABINOID COMPOSITIONS AND USE THEREOF” (priority 2019, published 2022):
Several values for one entry are separate records, joined by “and”; a condition that tells them apart may be missing. Equal entries are not always repeated. Where two headings read alike, the source gives them in different places.

Key:
NAR cell's efflux pumps = assay: Doxorubicin efflux into the media from pre-treated resistant cells; format: cell-based; details: NAR pre-treated with sub-lethal Doxorubicin; media with vs without cannabinoid, 5 minutes to 24 hours
Method: A resistant ovarian cancer cell line (NAR) was pre-treated with sub-lethal concentrations of Doxorubicin (Dox), and then incubated in media with and without THCa or CBD for time periods ranging from 5 minutes to 24 hours (a total of 12 time points were measured). The ability of the cells to efflux Dox into the media was measured and compared between the cells grown in the presence and absence of THCa (FIG. 8A) or CBD (FIG. 8B).

[1] = tested on: resistant ovarian cancer cells (NAR); format: cell-based; details: 4 h exposure, XTT after 72 h
Method: (§1) A non-resistant ovarian cancer cells lines (OVCAR8) and a resistant ovarian cancer cells line (NAR) were exposed to various concentrations of Doxorubicin (Dox), Tetrahydrocannabinolic acid (THCa) and combinations thereof. The cells were exposed to the treatment agents for 4 hours, after which the media was replaced. Cell survival/death levels were measured after 72 hours by XTT. The percent of cell survival was determined as the absorbance signal with subtracted background (media only) and normalized by mock. Each experimental combination was performed in quadruplicate/pentaplicate.
(§2) A non-resistant ovarian cancer cells line (OVCAR8) and a resistant ovarian cancer cell line (NAR) were exposed to various concentrations of Doxorubicin (Dox), Cannabidiol (CBD) and combinations thereof. The cells were exposed to the treatment agents for 4 hours, after which the media was replaced. Cell survival/death levels were measured after 72 hours by XTT. The percent of cell survival was determined as the absorbance signal with subtracted background (media only) and normalized by mock. Each experimental combination was performed in quadruplicate/pentaplicate.
The resistant ovarian cancer cells line (NAR) was exposed to various concentrations of Taxol (Paclitaxel), Tetrahydrocannabinolic acid (THCa) and combinations thereof. The cells were exposed to the treatment agents for 4 hours, after which the media was replaced. Cell survival/death levels were measured after 72 hours by XTT. The percent of cell survival was determined as the absorbance signal with subtracted background (media only) and normalized by mock. Each experimental combination was performed in quadruplicate/pentaplicate.
The resistant ovarian cancer cells line (NAR) was exposed to various concentrations of Cisplatin, Tetrahydrocannabinolic acid (THCa) and combinations thereof. The cells were exposed to the treatment agents for 4 hours, after which the media was replaced. Cell survival/death levels were measured after 72 hours by XTT. The percent of cell survival was determined as the absorbance signal with subtracted background (media only) and normalized by mock. Each experimental combination was performed in quadruplicate/pentaplicate.

[2] = tested on: Methicillin-resistant Staphylococcus aureus (MRSA); assay: MRSA killing by CFU counting after 4 h incubation; details: for Percentage death of MRSA cells, Antibiotics alone: antibiotic at MIC value; for Percentage death of MRSA cells, Antibiotics + CBD (565 μM): antibiotic at MIC value + CBD 565 μM
[3] = tested on: non-resistant ovarian cancer cells (OVCAR8); assay: XTT cell survival/death, non-resistant ovarian cancer cells; format: cell-based; details: Doxorubicin 30 μM alone, 4 h exposure, XTT after 72 h
Method: as §1, §2

[4] = tested on: lung cancer resistant cells (NCI-H69/LX4); format: cell-based; details: 4 h exposure, XTT after 72 h
Method: A multi-drug resistant small cell lung cancer cells line (NCI-H69/LX4) was exposed to Vincristine, Tetrahydrocannabinolic acid (THCa) and combination thereof. The cells were exposed to the treatment agents for 4 hours, after which the media was replaced. Cell survival/death levels were measured after 72 hours by XTT. The percent of cell survival was determined as the absorbance signal with subtracted background (media only) and normalized by mock. Each experimental combination was performed in quadruplicate/pentaplicate.

[5] = tested on: resistant ovarian cancer cells (NAR); format: cell-based; details: CBN 674 or 270 μM added to Dox
[6] = tested on: resistant pancreatic cancer cells (PANC-1); format: cell-based; details: 4 h exposure, XTT after 72 h
Method: A resistant pancreatic cancer cells line (PANC-1) was exposed to fluorouracil (5-FU), Tetrahydrocannabinolic acid (THCa) and combination thereof. The cells were exposed to the treatment agents for 4 hours, after which the media was replaced. Cell survival/death levels were measured after 72 hours by XTT. The percent of cell survival was determined as the absorbance signal with subtracted background (media only) and normalized by mock. Each experimental combination was performed in quadruplicate/pentaplicate.

C=C(C)[C@@H]1CCC(C)=C[C@H]1c1c(O)cc(CCCCC)cc1O [CBD, 2-[(6R)-3-Methyl-6-prop-1-en-2-yl-lcyclohex-2-envyl]-5pentylbenzene-1,3-diol]
decrease of Dox efflux levels (NAR cell's efflux pumps): ~40% | cell death ([1]; CBD 283 μM + Doxorubicin 30 μM): 35% | cell death ([1]; CBD 565 μM + Doxorubicin 30 μM): 75% | Percentage death of MRSA cells, CBD (565 μM) alone ([2]; Table 2, CBD 565 μM without antibiotic, 4 hours): 9%

Gentamycin
Percentage death of MRSA cells, Antibiotics + THCa (88 μM) [2]: 85% | Percentage death of MRSA cells, Antibiotics alone ([2]; Table 1, 4 hours): 15% | Percentage death of MRSA cells, Antibiotics + CBD (565 μM) ([2]; Table 2, 4 hours): 58% | Percentage death of MRSA cells, Antibiotics alone ([2]; Table 2, 4 hours): 15%

CN(C)[C@@H]1C(O)=C(C(N)=O)C(=O)[C@@]2(O)C(O)=C3C(=O)c4c(O)cccc4[C@@](C)(O)[C@H]3C[C@@H]12 [Tetracycline]
Percentage death of MRSA cells, Antibiotics alone ([2]; Table 1, 4 hours): 7% | Percentage death of MRSA cells, Antibiotics + CBD (565 μM) ([2]; Table 2, 4 hours): 42% | Percentage death of MRSA cells, Antibiotics + CBD (565 μM) ([2]; Table 2, 4 hours, listed as tetracycline): 42% | Percentage death of MRSA cells, Antibiotics alone ([2]; Table 2, 4 hours): 7%

COc1cccc2c1C(=O)c1c(O)c3c(c(O)c1C2=O)C[C@@](O)(C(=O)CO)C[C@@H]3O[C@H]1C[C@H](N)[C@H](O)[C@H](C)O1 [Doxorubicin]
cell death ([1]; Doxorubicin 30 μM alone): 16% and 20% | cell death ([1]; Doxorubicin 30 μM alone, listed as Dox): 20% | cell death [3]: 94%

CN[C@H](CC(C)C)C(=O)N[C@H]1C(=O)N[C@@H](CC(N)=O)C(=O)N[C@H]2C(=O)N[C@H]3C(=O)N[C@H](C(=O)N[C@H](C(=O)O)c4cc(O)cc(O)c4-c4cc3ccc4O)[C@H](O)c3ccc(c(Cl)c3)Oc3cc2cc(c3O[C@@H]2O[C@H](CO)[C@@H](O)[C@H](O)[C@H]2O[C@H]2C[C@](C)(N)[C@H](O)[C@H](C)O2)Oc2ccc(cc2Cl)[C@H]1O [Vancomycin]
Percentage death of MRSA cells, Antibiotics alone ([2]; Table 1, 4 hours): 8% | Percentage death of MRSA cells, Antibiotics + CBD (565 μM) ([2]; Table 2, 4 hours): 61% | Percentage death of MRSA cells, Antibiotics alone ([2]; Table 2, 4 hours): 8%

CC[C@]1(O)C[C@H]2CN(CCc3c([nH]c4ccccc34)[C@@](C(=O)OC)(c3cc4c(cc3OC)N(C=O)[C@H]3[C@@](O)(C(=O)OC)[C@H](OC(C)=O)[C@]5(CC)C=CCN6CC[C@]43[C@@H]65)C2)C1 [Vincristine]
cell death ([4]; Vincristine 10 μM alone): 17%

N.N.[Cl][Pt][Cl] [Cisplatin]
cell death ([1]; Cisplatin 115 μM alone): 12%

O=C(O)c1cn(C2CC2)c2cc(N3CCNCC3)c(F)cc2c1=O [Ciprofloxacin]
Percentage death of MRSA cells, Antibiotics alone ([2]; Table 1, 4 hours): 14% | Percentage death of MRSA cells, Antibiotics + CBD (565 μM) ([2]; Table 2, 4 hours): 54% | Percentage death of MRSA cells, Antibiotics alone ([2]; Table 2, 4 hours): 14%

CC(=O)O[C@H]1C(=O)[C@@]2(C)[C@H]([C@H](OC(=O)c3ccccc3)[C@]3(O)C[C@H](OC(=O)[C@H](O)[C@@H](NC(=O)c4ccccc4)c4ccccc4)C(C)=C1C3(C)C)[C@]1(OC(C)=O)CO[C@@H]1C[C@@H]2O [Taxol, Paclitaxel]
cell death ([1]; Taxol 50 μM alone): 23%

CCCCCc1cc(O)c2c(c1)OC(C)(C)c1ccc(C)cc1-2 [CBN, Cannabinol]
effect on Dox toxicity (enhancement of cell death) [5]: did not significantly enhance cell death

CO[C@H]1/C=C/O[C@@]2(C)Oc3c(C)c(O)c4c(O)c(c(/C=N/N5CCN(C)CC5)c(O)c4c3C2=O)NC(=O)/C(C)=C\C=C\[C@H](C)[C@H](O)[C@@H](C)[C@@H](O)[C@@H](C)[C@H](OC(C)=O)[C@@H]1C [Rifampicin]
Percentage death of MRSA cells, Antibiotics alone ([2]; Table 1, 4 hours): 17% | Percentage death of MRSA cells, Antibiotics + CBD (565 μM) ([2]; Table 2, 4 hours): 73% | Percentage death of MRSA cells, Antibiotics + CBD (565 μM) ([2]; Table 2, 4 hours, listed as rifampicin): 73% | Percentage death of MRSA cells, Antibiotics alone ([2]; Table 2, 4 hours): 17%

O=c1[nH]cc(F)c(=O)[nH]1 [5-FU, fluorouracil]
cell death ([6]; 5-FU 2 μM alone): 14%

CCCCCc1cc2c(c(O)c1C(=O)O)[C@@H]1C=C(C)CC[C@H]1C(C)(C)O2 [THCa, tetrahydrocannabinolic acid]
cell death ([4]; THCa 247 μM + Vincristine 10 μM): 95% | cell death ([4]; THCa 247 μM alone): 12% | decrease of Dox efflux levels (NAR cell's efflux pumps): ~50% | cell death ([1]; THCa 86 μM + Doxorubicin 30 μM): 64% | cell death ([1]; THCa 172 μM + Doxorubicin 30 μM): 86% | cell death ([1]; THCa 247 μM + Cisplatin 115 μM): 94% | cell death ([1]; THCa 247 μM + Taxol 50 μM): 94% | cell death ([1]; THCa 247 μM alone): 20% and 18% | cell death ([6]; THCa 247 μM + 5-FU 2 μM): 77% | cell death ([6]; THCa 247 μM alone): 8% | Percentage death of MRSA cells, THCa (88 μM) alone ([2]; Table 1, THCa 88 μM without antibiotic, 4 hours): 6%

O=C(N[C@H](CO)[C@H](O)c1ccc([N+](=O)[O-])cc1)C(Cl)Cl [Chloramphenicol]
Percentage death of MRSA cells, Antibiotics alone ([2]; Table 1, 4 hours): 12% | Percentage death of MRSA cells, Antibiotics + CBD (565 μM) ([2]; Table 2, 4 hours): 58% | Percentage death of MRSA cells, Antibiotics alone ([2]; Table 2, 4 hours): 12%
